Test results from the supplement of paper PMC8024199.
± gives the standard deviation of the averaged measurements.

Tests used:
Experiment in all cases: drug sensitivity score (DSS) (DSS score); higher = more sensitive (stronger growth inhibition); extreme values may be limits of the assay
Ly-BP RUNX1 p.R204Q = system: Ly-BP RUNX1 p.R204Q
Description: (§1)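 Ex vivo drug sensitivity and resistance testing of primary bone marrow mononuclear cells from blast-phase CML patients (RUNX1-mutated and RUNX1 wild-type) against an oncology drug library. Each drug was tested at five concentrations over a 10,000-fold range, with viability normalised to DMSO controls. The drug sensitivity score (DSS) was computed from the dose-response curve.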

My-BP RUNX1 wild-2 = system: My-BP RUNX1 wild-2
Description: as §1

Mye-BP RUNX1 p.R162K = system: Mye-BP RUNX1 p.R162K
Description: as §1

My-BP RUNX1 wild-3 = system: My-BP RUNX1 wild-3
Description: as §1

Mye-BP RUNX1 p.K117* = system: Mye-BP RUNX1 p.K117*
Description: as §1

Mye-BP RUNX1 p.R107C = system: Mye-BP RUNX1 p.R107C
Description: as §1

Ly-BP RUNX1 wild-1 = system: Ly-BP RUNX1 wild-1
Description: as §1

My-BP RUNX1 wild-4 = system: My-BP RUNX1 wild-4
Description: as §1

[1] = system: Ba/F3 P210-BCR-ABL1 RUNX1-/mut (mouse)
How it was run: (§2)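 A drug sensitivity score summarised each dose-response curve, with luminescence from CellTiter-Glo scaled between vehicle and positive-control wells. Values are the mean of two replicates. The cells were mouse Ba/F3 clones that were CRISPR/Cas9-edited at a target exon or were edited controls, exposed on pre-printed 384-well plates to a 528-compound library at five concentrations spanning a 10,000-fold range. Plates held 10,000 cells per well in RPMI with 10% FBS for 72 h at 37 °C and 5% CO2.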

[2] = system: Ba/F3 P210-BCR-ABL1 RUNX1wt/wt control (mouse)
How it was run: as §2

[3] = system: Ba/F3 P210-BCR-ABL1 RUNX1-/- (mouse)
How it was run: as §2

Compound | drug sensitivity score (Ly-BP RUNX1 p.R204Q) | drug sensitivity score (My-BP RUNX1 wild-2) | drug sensitivity score (Mye-BP RUNX1 p.R162K) | drug sensitivity score (My-BP RUNX1 wild-3) | drug sensitivity score (Mye-BP RUNX1 p.K117*) | drug sensitivity score (Mye-BP RUNX1 p.R107C) | drug sensitivity score (Ly-BP RUNX1 wild-1) | drug sensitivity score (My-BP RUNX1 wild-4) | drug sensitivity score [1] | drug sensitivity score [2] | drug sensitivity score [3]
CC[C@@]1(O)C(=O)OCc2c1cc1n(c2=O)Cc2cc3c(CN(C)C)c(O)ccc3nc2-1 [Topotecan] | 0 | 12.1 | 19.7 | 3.69 | 17.3 | 13 | 4.5 | 5.62 | 17.2 ± 2.3 | 15 | 20.6 ± 5
C[C@]12CC[C@H](O)CC1=CC[C@@H]1[C@@H]2CC[C@]2(C)C(c3cccnc3)=CC[C@@H]12 [Abiraterone] | 0 | 0 | 0 | 0 | 0 | 1.5 | 0 | 0 | 0 | 0 | 0.55 ± 0.78
CO[C@@]12[C@H](COC(N)=O)C3=C(C(=O)C(C)=C(N)C3=O)N1C[C@@H]1N[C@@H]12 [Mitomycin C] | 11.2 | 1.46 | 3.95 | 2.21 | 1.1 | 10.8 | 1.2 | 0 | 4.9 ± 1.8 | 4.35 ± 0.78 | 6.55 ± 3.9
COc1cccc2c1C(=O)c1c(O)c3c(c(O)c1C2=O)C[C@@](O)(C(C)=O)C[C@@H]3O[C@H]1C[C@H](N)[C@H](O)[C@H](C)O1 [Daunorubicin] | 10.6 | 15.8 | 15.3 | 9.94 | 11.7 | 19.9 | 15.9 | 22.6 | 19.5 ± 0.99 | 12.05 ± 0.071 | 22.3 ± 0.57
CC(C)C(=O)Nc1ccc([N+](=O)[O-])c(C(F)(F)F)c1 [Flutamide] | 0 | 0 | 1.64 | 0 | 0 | 0 | 0 | 0 | 0 | 0.5 ± 0.71 | 0
CO[C@@H]1[C@H](N(C)C(=O)c2ccccc2)C[C@H]2O[C@]1(C)n1c3ccccc3c3c4c(c5c6ccccc6n2c5c31)C(=O)NC4 [Midostaurin] | 0 | 7.69 | 6.91 | 0.0352 | 13.4 | 2.5 | 8.5 | 3.3 | 11.8 ± 3.4 | 6.15 ± 0.21 | 13.6 ± 3
COc1c(C)cnc(Cn2cnc3c(Cl)nc(N)nc32)c1C [BIIB021] | 15.6 | 20.5 | 23.9 | 4.85 | 22.3 | 21.1 | 20.9 | 11.4 | 22.8 ± 1.8 | 19.5 ± 0.28 | 24.8 ± 2.2
CO[C@@H](C(=O)N1Cc2[nH]nc(NC(=O)c3ccc(N4CCN(C)CC4)cc3)c2C1)c1ccccc1 [Danusertib] | 21.4 | 11.6 | 24.3 | 3.86 | 10 | 11.7 | 16.4 | 4.48 | 14.8 ± 1.2 | 10.2 ± 0.71 | 21.6 ± 0.57
C[C@]1(c2nc3c(C(N)=O)cccc3[nH]2)CCCN1 [Veliparib] | 0 | 0 | 2.76 | 1.65 | 0.7 | 1.2 | 2.9 | 0 | 5.15 ± 6.6 | 0.05 ± 0.071 | 3.45 ± 4.7
Clc1ccc(C(c2ccccc2Cl)C(Cl)Cl)cc1 (stereo unspecified) [Mitotane] | 0 | 0 | 0 | 0 | 0 | 0 | 0 | 0 | 0.75 ± 1.1 | 0.35 ± 0.49 | 0.45 ± 0.64
COc1cc(Nc2c(C#N)cnc3cc(OCCCN4CCN(C)CC4)c(OC)cc23)c(Cl)cc1Cl [Bosutinib] | 2.2 | 9.52 | 32.1 | 7.07 | 10.1 | 10.9 | 16.7 | 9.16 | 25.45 ± 0.071 | 18.6 ± 0.64 | 31.9 ± 0.64
CNCc1ccc(-c2[nH]c3cc(F)cc4c3c2CCNC4=O)cc1 [Rucaparib] | 0 | 1.36 | 0.662 | 0.032 | 0.1 | 3.1 | 1.4 | 0 | 2.3 ± 3.2 | 0 | 2.1 ± 0.99
Clc1ccc(Nc2nnc(Cc3ccncc3)c3ccccc23)cc1 [Vatalanib] | 0 | 0 | 0 | 0.0448 | 0.5 | 0 | 1.3 | 0 | 0 | 0 | 0
Cc1ccc(-c2cc(C(F)(F)F)nn2-c2ccc(S(N)(=O)=O)cc2)cc1 [Celecoxib] | 0 | 0 | 0.0478 | 0 | 2.7 | 0 | 0 | 0 | 0.3 ± 0.42 | 0 | 0.9 ± 0.28
Nc1ccn([C@@H]2O[C@H](CO)[C@@H](O)C2(F)F)c(=O)n1 [Gemcitabine] | 0 | 16.3 | 22.4 | 3.36 | 21.4 | 5.1 | 1.5 | 5.45 | 16.2 ± 2.4 | 16.4 ± 0.71 | 17.5 ± 0.28
Oc1nc(-c2ccc(C(F)(F)F)cc2)nc2c1CSCC2 [XAV-939] | 0 | 0 | 0 | 0.0005 | 0.9 | 0 | 0 | 0 | 0 | 0 | 0
